Data from patent US20060241178A1, “Compositions and methods for treating lung cancer” (priority 2002, published 2006).
Marks after values point to notes of the source that are not given here.

How the values were obtained:
[1] = test system: AP-1 binding activity in A549 cells; experiment: EMSA of AP-1 binding activity in A549 cells; format: cell-based, human
Experimental: Cell Lines: The human lung adenocarcinoma cell line A549 was obtained from the American Type Culture Collection (ATCC) (Bethesda, Md.). […] Cells were grown at 37° C. with 5% CO2.
Reagents: The PEITC was obtained from Aldrich (Milwaukee, Wis.) and its N-acetylcysteine conjugate was synthesized in house by the Organic Synthesis Facility using the method described previously (Kassahun et al., Chem Res Toxicol 1997, 10(11):1228-33). Unless specified otherwise, the A549 cells were treated with 10 or 25 μM of PEITC-NAC. TPA (12-O-tetradecanoylphorbol-13-acetate) was purchased from Sigma (St. Louis, Mo.).
Electrophoretic Mobility Shift Assay (EMSA): Double-stranded oligonucleotides containing the consensus-binding site for AP-1 were purchased commercially (Santa Cruz Biotech). The oligos were labeled with γ-^32P-ATP (6000 Ci/mmol, Armeshem Pharmacia Biotech. Inc Piscataway, N.J.) using polynucleotide kinase (Promega, Madison, Wis.) according to standard procedures. The labeled DNA was incubated with 5 μg of total proteins (as specified in the Results section) for 10 min at room temperature, in the presence of 1 μg of poly d(I)-d(C) oligomer (Roche Molecular Biochemicals, Indianapolis, Ind.) and DNA-binding buffer as described previously (Yang et al., Cell Growth Differ 1993, 4(7):595-602). The complexes were then separated on a 7.5% polyacrylamide gel and autoradiographed.
Proteins Isolation: Cells were incubated in a 37° C. with 5% CO2, followed by mock or treatments specified in the results section. Total proteins were then isolated using RIPA buffer. The protease inhibitors aprotinin (1 μg/ml), leupeptin (1 μg/ml), pepstatin (1 μg/ml), phenylmethylsulfonyl fluoride (0.1 mM) and the phosphatase inhibitor Na3VO4 (1 mM), NaF (1 mM) were added to all buffers. The protein concentrations were determined using the Coomassie Plus Protein Assay Reagent (Pierce, Rockford, Ill.), and aliquots of the proteins were stored at −80° C.

[2] = test system: B(a)P-induced lung adenoma; experiment: Tumor bioassay: B(a)P-induced lung tumorigenesis, ITC-NAC conjugates in diet during post-initiation phase
Experimental: The ITC conjugates were incorporated (15 μmol/g diet) into AIN-76A diets (5% corn oil) by mixing with dextrose prior to diet preparation. The conjugates, 9.36 g BITC-NAC (15 mmol) or 9.79 g PEITC-NAC (15 mmol), were dissolved in 50 ml ethyl acetate, and then mixed with 200 g dextrose to ensure even coating of dextrose particles. After mixing with dextrose, the solvent was removed using a rotary evaporator and further dried using a vacuum pump (2-3 h). Diets were prepared in 1-2 kg batches, and were stored at 4° C. in a container purged with nitrogen. […] Stability was determined by extraction of 0.5 g portions of the diet with 2.5 ml methanol (2×). The methanol extracts were combined and a 1 ml aliquot was filtered using a 0.47 μm syringe filter. A 10 μl sample was then analyzed on HPLC (Jiao, et al., Chem. Res. Toxicol., 9: 932-938, 1996).
Tumor Bioassay: Female strain A mice (Jackson Laboratories, Bar Harbor, Me.) of four weeks of age were housed under quarantine in polycarbonate cages (5 mice/cage) and provided modified AIN 76A diet (5% corn oil) and acidified drinking water ad libitum. The mice were maintained on a 12 h light: 12 h dark regimen at 22±5° C. and 50±20% relative humidity. After one week, the mice were weighed, and distributed into four groups containing 30 to 35 mice on the basis of body weight. At seven weeks of age, the mice in groups 1-3 were gavaged with a single dose of 20 μmol B(a)P in 0.2 ml cottonseed oil; group 4 received the vehicle only. Two days after dosing with the carcinogen, diets containing BITC-NAC (15 μmol/g, Group 2) and PEITC-NAC (15 μmol/g, Group 3) were provided. Groups 1 (B[a]P control) and 4 (vehicle only) remained on the modified AIN-76A diet with 5% corn oil. Tap water was provided ad libitum during the course of the bioassay. Mice were observed daily; diets were replenished on the fourth day of the week, and completely replaced on the seventh day. Mice were weighed weekly for four weeks, then monthly and at termination. At 84 days after B(a)P dosing, four mice per group were killed (CO2, cervical dislocation) to harvest lung tissues for molecular and immunohistochemical studies and to quantify lung adenomas, if present. At 140 days after B(a)P, the remaining mice in each group were killed. The number of lung tumors was recorded; lobes of lungs were placed in 10% phosphate buffered formalin for histological and immunohistochemical analysis. The remaining lung lobes were snap frozen in liquid nitrogen.
Mean tumor multiplicity and body weights at each time point were compared between groups using Student's T test.

[3] = test system: A549/control-vector cells; experiment: Apoptosis in A549/control-vector transfectants (morphology, DNA fragmentation, annexin V, PARP Western blot); format: cell-based, human; settings: 25 μM

In the case of CC(=O)N[C@@H](CSC(=S)NCCc1ccccc1)C(=O)O [PEITC-NAC, N-acetylcysteine Conjugate of phenethyl isothiocyanate], the “earliest appearance of AP-1 activation” value ([1]; 10 μM) is reported as 30 min, the “concentration of peak AP-1 binding activity” value ([1]; 24 h treatment) is reported as 10 µM and the “lowest concentration stimulating AP-1 activation” value ([1]; 24 h treatment) is reported as 1 µM. The “tumor multiplicity” value ([2]; 15 μmol/g diet after B(a)P, at termination, B(a)P control 6.1±3.1) was 3.4±2.7 tumors/mouse, the “Tumor Incidence (%), lung adenoma” value ([2]; 15 μmol/g diet from 2 days after 20 μmol B(a)P, 140 days) was 89% and the “Tumor multiplicity (no. of tumors/mice), lung adenoma” value ([2]; 15 μmol/g diet from 2 days after 20 μmol B(a)P, 140 days, mean ± SD) was 3.39 ± 2.71^b no. of tumors/mice. The “average body weight at termination” value ([2]; 15 μmol/g diet, controls 25.8 g and 25.7 g) was 22.8 g, the tumor reduction ([2]; versus B(a)P control diet group, at termination) was 44% and the “PARP 89 kD cleavage fragment” value ([3]; 3 h) was “a very light 89 kD cleavage fragment”. For the same molecule, the PARP protein ([3]; 24 h) was “maintained a significant levels of intact PARP protein” and the “cell survival (morphology, DNA fragmentation)” value ([3]; 24 h) was “the majority of control-vector transfectants were still alive”.
